Some test systems named below: SF-268 CNS; HCC-2998 colon; UACC-62 melanoma; UACC-257 melanoma; SW-620 colon; CCRF-CEM leukemia; KM12 colon; NCI-H226 lung; A498 renal; K-562 leukemia.
Assay in all cases: NCI-60 cell line screen, 48 h

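In this assay, cells in 96-well plates receive the compound at five concentrations for 48 hours. Endpoints are linearly interpolated between the surrounding concentrations. GI50 marks 50% less growth. TGI marks complete inhibition of growth.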

Take `C=C1CCC2CC1C(C(=O)c1c[nH]c3ccccc13)=NC2(C)C` (stereo not given): the TGI in the assay on SF-268 CNS, with HCC-2998 colon, with UACC-62 melanoma, in the assay with UACC-257 melanoma, in the assay on SW-620 colon and in the assay on CCRF-CEM leukemia was greater than 100 µM in each case. The TGI with KM12 colon, in the assay on NCI-H226 lung, with A498 renal and in the assay with K-562 leukemia was greater than 100 µM each time.
As for `NC(CCSCC(F)(F)F)C(=O)O` (stereo not given), the TGI in the assay on SF-268 CNS, with HCC-2998 colon, in the assay with UACC-62 melanoma, in the assay with UACC-257 melanoma, with SW-620 colon and in the assay on CCRF-CEM leukemia was greater than 100 µM each time. Besides, the TGI in the assay with KM12 colon, with NCI-H226 lung, in the assay on A498 renal and with K-562 leukemia was greater than 100 µM in each case.
Take `COc1cccc(/C=N/[N-]C(=O)c2ccncc2)c1[O-].[Mn+2].[OH3+]`: the GI50 is 4.97 µM in the assay with SF-268 CNS; 19 µM in the assay with HCC-2998 colon; 3.9 µM with UACC-62 melanoma; 5.05 µM in the assay with UACC-257 melanoma; 4.42 µM in the assay with SW-620 colon; 1.8 µM in the assay on CCRF-CEM leukemia. The GI50 in the assay on KM12 colon was 8.31 µM; with NCI-H226 lung, 12.4 µM; in the assay on A498 renal, 27.4 µM; in the assay with K-562 leukemia, 2.9 µM. In addition, the TGI was 79.5 µM in the assay with SF-268 CNS; greater than 100 µM in the assay on HCC-2998 colon; 23.2 µM with UACC-62 melanoma; 96.2 µM with UACC-257 melanoma; greater than 100 µM in the assay with SW-620 colon; 6.26 µM in the assay on CCRF-CEM leukemia. The TGI was greater than 100 µM with KM12 colon, 86.5 µM in the assay on NCI-H226 lung, 94.3 µM in the assay with A498 renal and 9.69 µM in the assay on K-562 leukemia.
With `C[N+]1=C(c2cccnc2/C=N/O)OCC1(C)C`, the TGI with SF-268 CNS, in the assay on HCC-2998 colon, in the assay with UACC-62 melanoma, in the assay with UACC-257 melanoma, in the assay with SW-620 colon and in the assay on CCRF-CEM leukemia was greater than 100 µM throughout. Also, the TGI with KM12 colon, with NCI-H226 lung, in the assay with A498 renal and with K-562 leukemia was greater than 100 µM throughout.
As to `O=C1Cc2c(-c3ccccc3)cc(-c3ccccc3)nc2-c2ccccc2N1`, the TGI in the assay on SF-268 CNS is 19.3 µM; in the assay on HCC-2998 colon, 11.5 µM; in the assay with UACC-62 melanoma it was 25.7 µM; in the assay with UACC-257 melanoma, greater than 100 µM; in the assay on SW-620 colon, 82.5 µM; in the assay with CCRF-CEM leukemia, greater than 100 µM. The TGI with KM12 colon was greater than 100 µM; in the assay on NCI-H226 lung, 46.9 µM; in the assay with A498 renal, 59.2 µM; in the assay on K-562 leukemia, greater than 100 µM.
With `C[C@@H](O)[C@@H](C)Oc1nc(Nc2ccc(S(=N)(=O)C3CC3)cc2)ncc1C(F)(F)F` (stereo not given in full), the GI50 in the assay on SF-268 CNS is 0.03 µM; in the assay on HCC-2998 colon it was 0.0465 µM; with UACC-62 melanoma, 0.0249 µM; with UACC-257 melanoma it was 0.0306 µM; in the assay on SW-620 colon, 0.0281 µM; with CCRF-CEM leukemia, 0.0231 µM. Besides, the GI50 was 0.0242 µM in the assay with KM12 colon, 0.0288 µM in the assay on NCI-H226 lung, 0.021 µM in the assay on A498 renal and 0.0425 µM with K-562 leukemia. Also, the TGI in the assay with SF-268 CNS was 0.726 µM; in the assay on HCC-2998 colon, 2.72 µM; in the assay on UACC-62 melanoma, 0.0931 µM; in the assay with UACC-257 melanoma it was 0.133 µM; with SW-620 colon, 4.35 µM; with CCRF-CEM leukemia, 0.0621 µM. The TGI is 1.16 µM with KM12 colon, 0.106 µM in the assay on NCI-H226 lung, 0.0461 µM in the assay on A498 renal and greater than 100 µM with K-562 leukemia.
Consider `Cc1cccc(C(C)(C)C)c1NC(=O)C(C#N)C1=C(Cl)C(=O)c2ccccc2C1=O` (stereo not given), for which the TGI with SF-268 CNS was 31.2 µM; with HCC-2998 colon, 29.7 µM; in the assay with UACC-62 melanoma it was 32.5 µM; in the assay on UACC-257 melanoma, 30.3 µM; in the assay with SW-620 colon, 36.3 µM; with CCRF-CEM leukemia, 10.7 µM. Also, the TGI in the assay with KM12 colon turned out to be 31.3 µM; in the assay on NCI-H226 lung it was 21.2 µM; in the assay with A498 renal it was 44.4 µM; with K-562 leukemia it was 10.2 µM.
For `COc1ccc(C(=O)/C=C/c2sc(Cl)nc2Cl)cc1`, the GI50 with SF-268 CNS was 3.23 µM; in the assay on HCC-2998 colon it was 1.72 µM; in the assay with UACC-62 melanoma it was 2.22 µM; in the assay with UACC-257 melanoma it was 3.26 µM; in the assay on SW-620 colon, 0.613 µM; in the assay with CCRF-CEM leukemia, 0.267 µM. Also, the GI50 in the assay on KM12 colon is 2.75 µM; in the assay with NCI-H226 lung it was 0.655 µM; in the assay on A498 renal, 4.67 µM; with K-562 leukemia, 0.328 µM. Also, the TGI with SF-268 CNS amounted to 16.4 µM; in the assay with HCC-2998 colon it was 3.31 µM; with UACC-62 melanoma, 6.19 µM; in the assay on UACC-257 melanoma, 12.7 µM; in the assay on SW-620 colon, 2.79 µM; in the assay on CCRF-CEM leukemia it was 14.7 µM. Besides, the TGI in the assay with KM12 colon is 7.54 µM; with NCI-H226 lung, 17.8 µM; in the assay with A498 renal, 20.2 µM; in the assay with K-562 leukemia, greater than 100 µM.
On to `CC(C)C[C@H](CC(=O)O)C(=O)N[C@@H](Cc1c[nH]c2ccccc12)C(=O)N[C@@H](C)c1ccccc1`, for which the GI50 with SF-268 CNS, in the assay on HCC-2998 colon, in the assay on UACC-62 melanoma, in the assay with UACC-257 melanoma, in the assay with SW-620 colon and with CCRF-CEM leukemia was greater than 25 µM each time. For the same compound, the GI50 in the assay on KM12 colon, in the assay on NCI-H226 lung, in the assay on A498 renal and in the assay on K-562 leukemia was greater than 25 µM in each case. Also, the TGI in the assay on SF-268 CNS, in the assay on HCC-2998 colon, with UACC-62 melanoma, with UACC-257 melanoma, with SW-620 colon and in the assay with CCRF-CEM leukemia was greater than 25 µM each time. Besides, the TGI with KM12 colon, in the assay with NCI-H226 lung, in the assay with A498 renal and with K-562 leukemia was greater than 25 µM in each case.

(Values after PubChem BioAssay (NCI).)
